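Growth conditions: 96-well plates. Treatment: test compound, 48 hours, 5 concentrations. Analysis: linear interpolation between bracketing concentrations; unreached endpoints set to highest concentration. GI50 = concentration required for 50% inhibition of growth.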 Calls of active or inactive are those of the source. Cut-off read from the data, not from the text of the source: active = GI50 up to about 1.1 µM and inactive = higher.
Columns and labels:
Assay in all cases: growth of human tumour cells (NCI), 48 h
[1] = test system: 786-0
[2] = test system: A549
[3] = test system: CAKI-1
[4] = test system: HOP-62
[5] = test system: HOP-92
[6] = test system: LOX IMVI
[7] = test system: LXFL 529
[8] = test system: OVCAR-4
[9] = test system: SF-539
[10] = test system: SK-MEL-2
[11] = test system: SK-OV-3
[12] = test system: UACC-62
[13] = test system: UO-31
[14] = test system: A498
[15] = test system: RXF 393
[16] = test system: UACC-257
[17] = test system: DU-145
[18] = test system: Hs-578T
[19] = test system: MCF7
[20] = test system: PC-3

SMILES | GI50 [1] | GI50 [2] | GI50 [3] | GI50 [4] | GI50 [5] | GI50 [6] | GI50 [7] | GI50 [8] | GI50 [9] | GI50 [10] | GI50 [11] | GI50 [12] | GI50 [13] | GI50 [14] | GI50 [15] | GI50 [16] | GI50 [17] | GI50 [18] | GI50 [19] | GI50 [20]
Oc1cc(-c2ccc3c(c2)OCO3)nc2cc3c(cc12)OCO3 | 34.9 µM (inactive) | 42.9 µM (inactive) | 64.4 µM (inactive) | 22.9 µM (inactive) | > 100 µM (inactive) | 57.8 µM (inactive) | 68.4 µM (inactive) | > 100 µM (inactive) | 23 µM (inactive) | 31.1 µM (inactive) | 30.9 µM (inactive) | 36.9 µM (inactive) | > 100 µM (inactive) |  |  |  |  |  |  | 
C=CCNC(=O)NCCCCC(NC(C)=O)C(=O)NCc1ccccc1 (stereo unspecified) | > 100 µM (inactive) | > 100 µM (inactive) | > 100 µM (inactive) | > 100 µM (inactive) | > 100 µM (inactive) | > 100 µM (inactive) | > 100 µM (inactive) | > 100 µM (inactive) | > 100 µM (inactive) | > 100 µM (inactive) | > 100 µM (inactive) | > 100 µM (inactive) | > 100 µM (inactive) | > 100 µM (inactive) | > 100 µM (inactive) | > 100 µM (inactive) |  |  |  | 
CCC1(O)C(=O)OCc2c1cc1n(c2=O)Cc2c-1nc1ccccc1c2OC (stereo unspecified) | < 0.01 µM (active) | < 0.0127 µM (active) | < 0.01 µM (active) | < 0.01 µM (active) | 0.106 µM (active) | < 0.01 µM (active) | 0.434 µM (active) | 0.187 µM (active) | < 0.01 µM (active) | 2.16 µM (inactive) | 0.0386 µM (active) | < 0.01 µM (active) | < 0.0221 µM (active) | 0.0513 µM (active) | < 0.0136 µM (active) | 0.0575 µM (active) |  |  |  | 
COc1ccc2c(c1)Oc1cc(O)ccc1[C@@H]2c1ccccc1C(=O)NC(C)c1ccccc1 (stereo partly specified) | 13.7 µM (inactive) | 17.7 µM (inactive) | 20.6 µM (inactive) | 15.3 µM (inactive) |  | 15.9 µM (inactive) | 14.2 µM (inactive) |  | 16.3 µM (inactive) | 18.7 µM (inactive) | 23.1 µM (inactive) | 13.6 µM (inactive) | 13.5 µM (inactive) | 17.7 µM (inactive) | 13.1 µM (inactive) | 14.8 µM (inactive) |  |  |  | 
Cc1ccc(C(=O)NCCN(C)C)c2nc3ccccc3cc12 | 2.32 µM (inactive) | 0.92 µM (active) | 1.79 µM (inactive) | 8.24 µM (inactive) | 14 µM (inactive) | 0.561 µM (active) | 2.15 µM (inactive) | 3.74 µM (inactive) |  | 2.53 µM (inactive) | 30.3 µM (inactive) | 2.47 µM (inactive) | 2.49 µM (inactive) |  | 1.29 µM (inactive) | 1.3 µM (inactive) |  |  |  | 
CCN(CC)CC(C(=O)Nc1c(C)cccc1C)/C(C)=N\NC(=O)c1ccncc1 (stereo unspecified) | > 100 µM (inactive) | > 100 µM (inactive) | > 100 µM (inactive) | > 100 µM (inactive) | > 100 µM (inactive) | > 100 µM (inactive) | > 100 µM (inactive) | > 100 µM (inactive) | > 100 µM (inactive) | > 100 µM (inactive) | > 100 µM (inactive) |  | > 100 µM (inactive) | > 100 µM (inactive) | > 100 µM (inactive) | > 100 µM (inactive) |  |  |  | 
COC(=O)N/N=C(\C(=O)Nc1cccc([N+](=O)[O-])c1)c1nc2ccc([N+](=O)[O-])cc2nc1O | 53.1 µM (inactive) | 42.9 µM (inactive) |  | 26.4 µM (inactive) | 61.2 µM (inactive) | 18.6 µM (inactive) | 27.7 µM (inactive) | > 100 µM (inactive) | 39.5 µM (inactive) |  | > 100 µM (inactive) | 12.4 µM (inactive) | 14.5 µM (inactive) |  | > 100 µM (inactive) | > 100 µM (inactive) |  |  |  | 
O=C(O)CNS(=O)(=O)c1ccc(NC(=O)CI)cc1 | 14.9 µM (inactive) | 91.2 µM (inactive) | 40.7 µM (inactive) |  | 19.4 µM (inactive) | 19 µM (inactive) | 6.97 µM (inactive) | 18 µM (inactive) | 16.1 µM (inactive) | 23.3 µM (inactive) | 33.8 µM (inactive) | 25.1 µM (inactive) | 20 µM (inactive) | > 100 µM (inactive) | 15.5 µM (inactive) | 42.5 µM (inactive) |  |  |  | 
Cc1ccc2c(ccc(/C=C\c3cc(C)c4cccnc4c3O)[n+]2C)c1 | 2.32 µM (inactive) | 8.43 µM (inactive) | 5.53 µM (inactive) | 5.5 µM (inactive) |  | 0.791 µM (active) | 0.3 µM (active) | 14.4 µM (inactive) | 1.64 µM (inactive) |  |  | 0.535 µM (active) | 15.7 µM (inactive) | 14.6 µM (inactive) |  | 11.7 µM (inactive) |  |  |  | 
CC(C)(C)CC(C)(C)NCC(O)COc1ccc(C(C)(C)c2ccc(OCC(O)CNC(C)(C)CC(C)(C)C)cc2)cc1 (stereo unspecified) | 1.06 µM (active) | 1.6 µM (inactive) | 1.75 µM (inactive) | 1.77 µM (inactive) | 1.78 µM (inactive) | 0.429 µM (active) | 0.357 µM (active) | 2.01 µM (inactive) | 1.86 µM (inactive) | 1.84 µM (inactive) | 1.77 µM (inactive) | 1.81 µM (inactive) | 1.61 µM (inactive) | 1.58 µM (inactive) | 1.82 µM (inactive) |  |  |  |  | 
COC(=O)C1=C(C[S+]([O-])c2ccc([N+](=O)[O-])cc2[N+](=O)[O-])C2C=CC1C2 (stereo unspecified) | 27.1 µM (inactive) | 57 µM (inactive) | 21.1 µM (inactive) | > 100 µM (inactive) |  | 13.5 µM (inactive) | 22.2 µM (inactive) | 25.7 µM (inactive) | 24.3 µM (inactive) | 41.4 µM (inactive) | 38.3 µM (inactive) | 18 µM (inactive) | 22.4 µM (inactive) | > 100 µM (inactive) | 26.2 µM (inactive) | 30.2 µM (inactive) |  |  |  | 
N#CC(C#N)=c1ccc(=C2NCC3CCCN23)cc1 (stereo unspecified) | > 100 µM (inactive) | > 100 µM (inactive) | > 100 µM (inactive) | > 100 µM (inactive) | > 100 µM (inactive) | > 100 µM (inactive) | > 100 µM (inactive) | > 100 µM (inactive) | > 100 µM (inactive) | > 100 µM (inactive) | > 100 µM (inactive) | > 100 µM (inactive) | > 100 µM (inactive) | > 100 µM (inactive) | > 100 µM (inactive) | > 100 µM (inactive) |  |  |  | 
CCCCCCCCCCCCCCCCCCNc1ccn(C2OC(COP(=O)(O)OC3CC(n4cc(F)c(=O)[nH]c4=O)OC3COP(=O)(O)OCC3OC(n4ccc(N)nc4=O)C(O)C3O)C(O)C2O)c(=O)n1 (stereo unspecified) | 1.31 µM (inactive) | 0.0906 µM (active) | 4.47 µM (inactive) | 10.4 µM (inactive) | > 60.4 µM (inactive) | 0.139 µM (active) |  | 41.7 µM (inactive) | < 0.01 µM (active) | 18.1 µM (inactive) | 19.9 µM (inactive) | 1.1 µM (active) | 11.5 µM (inactive) | 20.8 µM (inactive) | 16 µM (inactive) | 22.6 µM (inactive) | 1.08 µM (active) | > 67.8 µM (inactive) | 0.276 µM (active) | 7.14 µM (inactive)
CCOC(=O)/C(C)=C(/O)C(=O)OCC | > 100 µM (inactive) | > 100 µM (inactive) | > 100 µM (inactive) | > 100 µM (inactive) | > 100 µM (inactive) | > 100 µM (inactive) | > 100 µM (inactive) | > 100 µM (inactive) | > 100 µM (inactive) | > 100 µM (inactive) | > 100 µM (inactive) | > 100 µM (inactive) | > 100 µM (inactive) | > 100 µM (inactive) | > 100 µM (inactive) | > 100 µM (inactive) |  |  |  | 
COC(=O)[C@@]12C3=NO[C@]1(C(=O)OC)C(O[Si](C)(C)C(C)(C)C)C1OC(C)(C)OC1[C@@H]2[C@@H](OCc1ccccc1)CC3 (stereo partly specified) | > 100 µM (inactive) | > 100 µM (inactive) |  |  | 4.4 µM (inactive) | 83.9 µM (inactive) | 46.3 µM (inactive) | 23.9 µM (inactive) | > 100 µM (inactive) | > 100 µM (inactive) | > 100 µM (inactive) | > 100 µM (inactive) | 8.85 µM (inactive) | > 100 µM (inactive) |  |  |  |  |  | 
CC(C)(O)C(O)COc1c2c(cc3oc(=O)ccc13)OCO2 (stereo unspecified) | > 100 µM (inactive) | > 100 µM (inactive) | > 100 µM (inactive) | > 100 µM (inactive) | > 100 µM (inactive) | > 100 µM (inactive) | > 100 µM (inactive) | > 100 µM (inactive) | > 100 µM (inactive) | > 100 µM (inactive) | > 100 µM (inactive) | > 100 µM (inactive) | > 100 µM (inactive) | > 100 µM (inactive) | > 100 µM (inactive) | > 100 µM (inactive) |  |  |  | 
O=c1c(O)c(-c2cc(O)c(O)c(O)c2)oc2cc(O)cc(O)c12 [MYRICETIN] | 20.1 µM (inactive) | 33.8 µM (inactive) | 23.6 µM (inactive) | 20.3 µM (inactive) | 46.7 µM (inactive) | 13.6 µM (inactive) |  | 16.3 µM (inactive) | > 100 µM (inactive) | > 100 µM (inactive) | > 100 µM (inactive) | 39.5 µM (inactive) | 90.8 µM (inactive) | > 100 µM (inactive) | 20.8 µM (inactive) | 29.2 µM (inactive) | > 100 µM (inactive) | 40.9 µM (inactive) | 18.5 µM (inactive) | > 100 µM (inactive)

Reference: ChEMBL document CHEMBL1201862, “PubChem BioAssay data set” (2004)
